Measured values reported in paper PMC10386076, “Discovery of RC-752, a Novel Sigma-1 Receptor Antagonist with Antinociceptive Activity: A Promising Tool for Fighting Neuropathic Pain” (Pharmaceuticals, 2023).
Entries after “also recorded” stand apart in the source; their conditions may differ.

Key:
S1R = biological target: T1, S1R (Cavia porcellus, UniProt Q60492); assay: S1R radioligand displacement binding assay ([3H]-(+)-pentazocine); design: species or system guinea pig; details: for Selectivity (Ki S2R/Ki S1R): ratio Ki S2R/Ki S1R
T1 construct: tissue Harlan-Winkelmann, Borchen, Germany; host or cells: guinea pig brain membrane homogenate
Protocol: (R/S)-1a–3e were first evaluated for their binding affinity toward the S1R and S2R in a radioligand displacement assay. […] Nonspecific binding was determined using non-radiolabeled (+)-pentazocine and haloperidol in excess. All the binding experiments were carried out in duplicate. […] Haloperidol was used as a control compound in both assays.
Five guinea pig brains were homogenized with the potter (500–800 rpm, 10 up and down strokes) in 6 volumes of cold 0.32 M sucrose. The suspension was centrifuged at 1200× g for 10 min at 4 °C. […] This procedure was repeated twice. The final pellet was resuspended in 56 volumes of buffer and frozen ([…]) in 1.5 mL portions containing about 1.5 mg protein/mL.
The test compound solutions were prepared by dissolving approximately 10 µmol (usually 2–4 mg) of test compound in dimethyl sulfoxide (DMSO, unless otherwise specified), so that a 10 mM stock solution was obtained. To obtain the required test solutions for the assay, the DMSO stock solution was diluted with the respective assay buffer. The filtermats were presoaked in 0.5% aqueous polyethylenamine solution for 2 h at r.t. before use. All the binding experiments were carried out in duplicate in 96-well multiplates. The concentrations given are the final concentrations in the assay. […] The receptor preparation was always added last. During the incubation, the multiplates were shaken at a speed of 500–600 rpm at the specified temperature. […] During the filtration each well was washed five times with 300 µL of water. Subsequently, the filtermats were dried at 95 °C. The solid scintillator was melted on the dried filtermats at 95 °C for 5 min. After the solidifying of the scintillator at r.t., the trapped radioactivity in the filtermats was measured with the scintillation analyzer. Each position on the filtermat corresponding to one well of the multiplate was measured for 5 min with the [^3H]-counting protocol. The overall counting efficiency was 20%. The IC50 values were calculated with GraphPad Prism 3.0 (GraphPad Software, San Diego, CA, USA) by nonlinear regression analysis. The IC50 values were subsequently transformed into Ki values using the equation of Cheng and Prusoff. All the experiments were carried out in duplicates. Compounds with high S1R affinity were tested in three independent experiments, and their Ki values are given as mean value ± SEM from the three measurements. […] (22.0 Ci/mmol; Perkin-Elmer). […] The nonspecific binding was determined with 10 µM unlabeled (+)-pentazocine.

PC12 cells = assay: NGF-induced neurite outgrowth assay in PC12 cells; format: cell-based; details: for effect on percentage of differentiated PC12 cells, co-administration with PRE-084: 0.25 μM and 2.5 μM with 10 μM PRE-084, vs PRE-084; for effect on NGF-induced neurite outgrowth, compound alone: 0.25 μM and 2.5 μM, vs NGF
Protocol: At 80% confluence, the cells were either split to allow a further culture expansion or plated onto 48-well flat-bottom plates previously coated with poly-L-ornithine (Sigma Aldrich, Milan, Italy) at the final concentration of 10 μg/cm^2. The cells were plated at low density (2500 cells/well) to allow proper neurite elongation. The PC12 cells were mechanically detached from the flask to avoid cell-surface receptor cleavage and to preserve the correct binding of NGF to the TrkA receptors. To minimize detachment stress, the cells were left in PM for 24 h to recover. […] PRE-084 (10 µM), an S1R agonist, was used to verify that the effects of the selected compounds were due to the S1R modulation. In CTR conditions, the cells were incubated with the drug vehicle. For all the ligands, two replicates per concentration were performed in at least 3 experiments with different PC12 batches.
After 72 h incubation in DM, the cells were fixed with a 4% paraformaldehyde solution (pH 7.4). To allow the neurite visualization with a bright-field microscope, the cells were stained with the Harris Hematoxylin solution (Sigma Aldrich). After staining, images of six fields per well were acquired with a digital camera linked to a bright-field inverted microscope (Optika) (20× magnification). […] Only the cells bearing a neurite as long as their soma’s diameter were identified as differentiated cells. The number of differentiated cells was expressed as the percentage of differentiated cells over the total number of cells.

HeLa cells = assay: AQP-mediated osmotic water permeability assay (stopped-flow light scattering); details: pre-treatment 20 μM, heat stress 42 °C 3 h
Protocol: As an orthogonal assay to determine the functional profile of our compounds, the effect on AQP-mediated water permeability was investigated. AQPs are a family of transmembrane proteins involved in the transport of water and other small molecules (e.g., H2O2) through cell membranes. AQP functions are thus critical in ensuring reactive oxygen species (ROS) scavenging and cell survival. […] Briefly, the osmotic water permeability of HeLa cells was measured by a stopped-flow light scattering method and expressed as a percentage of k relative.
Osmotic water permeability was measured in the HeLa cell suspension by the stopped-flow light scattering method, as previously described. The experiments were performed at 25 °C on the stopped-flow apparatus (RX2000, Applied Photophysics, Leatherhead, UK) with a pneumatic drive accessory (DA.1, Applied Photophysics) straightforwardly coupled with a Varian Cary 50 spectrometer (Varian Australia Pty Ltd., Mulgrave, Australia). Briefly, scattered light intensity with a dead time of 6 ms was recorded at a wavelength of 450 nm. […] To evaluate the effect of the test compounds on water permeability, the HeLa cells were divided into different groups: (1) controls, cells incubated at r.t. (21 °C) in the presence of the same volume of methanol as that of the treated cells; (2) heat-stressed cells, cells heat-treated in a water thermostatic and shacking bath at 42 °C for 3 h; (3) heat-stressed cells pre-treated with the test compounds at a 20 µM final concentration (dissolved in methanol).

[1] = tested on: MRC-5 (human normal lung fibroblasts); assay: MTS cytotoxicity assay, MRC-5; format: cell-based
Protocol: (§1) The early toxicity assays included in vitro cytotoxicity against two human cell lines, namely MRC-5 (human normal lung fibroblasts) and CHME-5 (human microglial cells) and an in vivo zebrafish model. The cell lines MRC-5 and CHME-5 were exposed for 24, 48, and 72 h to increasing concentrations of the tested compounds (from 0.1 to 100 µM).
(§2) A CellTiter 96® AQueous One Solution Cell Proliferation Assay (Promega, Milan, Italy) was used on cells seeded onto a 96-well plate at a density of 9 × 10^3 cells per well. The effect of the test compound was evaluated at four different concentrations (0.1, 1, 10, and 100 μM) after 24 h of continued exposure. Two independent experiments were performed for each concentration. The optical density (OD) of the treated and untreated cells was determined at a wavelength of 490 nm using a plate reader. The data were elaborated with the GraphPad Prism 5 program.

[2] = tested on: CHME-5 (human microglial cells); assay: MTS cytotoxicity assay, CHME-5; format: cell-based; details: for cell survival: CHME-5, 100 μM, all time points
Protocol: as §1, §2

[3] = MRC-5, concentrations ≤10 μM, 24, 48 and 72 h
[4] = CHME-5, concentrations ≤10 μM, 24, 48 and 72 h

T1 sequence (Q60492 whole entry): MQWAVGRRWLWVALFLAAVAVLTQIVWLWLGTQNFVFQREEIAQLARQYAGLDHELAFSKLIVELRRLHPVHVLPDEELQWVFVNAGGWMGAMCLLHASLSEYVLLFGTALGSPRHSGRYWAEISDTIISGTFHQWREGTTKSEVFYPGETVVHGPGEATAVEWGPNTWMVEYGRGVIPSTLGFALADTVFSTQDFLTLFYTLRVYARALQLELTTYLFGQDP

CN(CCC(CO)c1ccc(-c2ccccc2)cc1)Cc1ccccc1 (stereo not drawn) [Compound 1c, 3-([1,1’-biphenyl]-4-yl)-N-benzyl-4-hydroxy-N-methylbutanamine]
Ki (S1R): 0.95 ± 0.08 nM | Selectivity (Ki S2R/Ki S1R) (S1R): 127 | effect on percentage of differentiated PC12 cells, co-administration with PRE-084 (PC12 cells): significantly reduced | effect on NGF-induced neurite outgrowth, compound alone (PC12 cells): did not significantly enhance | effect on water permeability in heat-stressed HeLa cells (HeLa cells): in line with that of S1R antagonists | cytotoxicity ([1]; MRC-5, 100 µM, 24 h of exposure): evident cytotoxic effects | cytotoxicity [1, 3]: no cytotoxicity | cytotoxicity ([2]; CHME-5, 100 µM, 24 h of exposure): evident cytotoxic effects | cell survival [2]: reduced the survival | cytotoxicity [2, 4]: no cytotoxicity

OCC(CCN1CCCCC1)c1ccc(-c2ccccc2)cc1 (stereo not drawn) [Compound 1d, 2-([1,1’-biphenyl]-4-yl)-4-(piperidin-1-yl)butan-1-ol]
Selectivity (Ki S2R/Ki S1R) (S1R): 58 | effect on percentage of differentiated PC12 cells, co-administration with PRE-084 (PC12 cells; listed as (R/S)-1d): significantly reduced; also recorded: most effective | effect on NGF-induced neurite outgrowth, compound alone (PC12 cells): did not significantly enhance | effect on water permeability in heat-stressed HeLa cells (HeLa cells): in line with that of S1R antagonists | cytotoxicity ([1]; MRC-5, 100 µM, 24 and 48 h of exposure): no significative cytotoxicity | survival rate ([1]; MRC-5, 100 µM, 72 h): higher than 50% | cytotoxicity [1, 3]: no cytotoxicity | cytotoxicity ([2]; CHME-5, 100 µM, 24 and 48 h of exposure): no significative cytotoxicity | survival rate ([2]; CHME-5, 100 µM, 72 h): higher than 50% | cell survival [2]: reduced the survival | cytotoxicity [2, 4]: no cytotoxicity
